Assay results taken from patent US20240246905A1 (University of Leicester, priority 2021, published 2024).
Values after ≈ are worked out from the molar mass of the structure shown. Read-outs that look alike come from different tables or passages of the source.

Assays:
MRSA 252 [1] = experiment: Resistance testing by serial passaging; type: cell-based, S. aureus; conditions: 18 serial passage cycles
Method: Next a serial passage study was undertaken in order to elucidate the speed at which target bacteria might either evolve resistance or select for persister cells within that population following exposure to compound 36.
For resistance development by serial passaging, 5 μL of overnight cultured MRSA 252 cells were added to individual wells in a 96-well plate containing 195 μL of TSB supplemented with a range of antibiotic concentrations and incubated at 37° C. for 18 hours. Ofloxacin served as a control. Wells where bacterial growth was visible after 18 hours were plated on TSA plates and incubated at 37° C. for a further 18 hours. Single colonies obtained from the overnight cultured bacteria were then inoculated into fresh TSB medium, incubated at 37° C. for 18 hours before being used in the next cycle of the resistance testing. This process continued for 18 cycles.

[2] = tested on: C. neoformans H99; ATCC 208821; experiment: Anti-fungal MIC (CO-ADD); type: cell-based; conditions: Cryptococcus neoformans, ATCC208821, read-out: MIC
Method: (§1) Fungal strains were cultured for 3 days on Yeast Extract-Peptone Dextrose (YPD) agar at 30° C. A yeast suspension of 1×10^6 to 5×10^6 CFU/mL (as determined by OD530) was prepared from five colonies. […] All plates were covered and incubated at 35° C. for 36 hours without shaking. […] The absorbance was measured using a Biotek Multiflo Synergy HTX plate reader. In both cases, the percentage of growth inhibition was calculated for each well, using the negative control (media only) and positive control (fungi without inhibitors) on the same plate. […] Due to a higher variance in growth and inhibition, a lower threshold was applied to the data for C. neoformans. In addition, the maximal percentage of growth inhibition is reported as DMax, indicating any compounds with marginal activity.

C. tropicalis ATCC 450 = experiment: Anti-fungal MIC (CO-ADD); type: cell-based; conditions: Candida tropicalis, ATCC450, read-out: MIC
Method: as §1

C. albicans ATCC 90028 = experiment: Anti-fungal MIC (CO-ADD); type: cell-based; conditions: Candida albicans, ATCC90028, read-out: MIC
Method: as §1

[3] = tested on: C. deuterogattii ATCC 32609; experiment: Anti-fungal MIC (CO-ADD); type: cell-based; conditions: read-out: MIC
Method: as §1

C. glabrata ATCC 90030 = experiment: Anti-fungal MIC (CO-ADD); type: cell-based; conditions: Nakaseomyces glabratus, ATCC90030, read-out: MIC
Method: as §1

C. tropicalis ATCC 750 = experiment: Anti-fungal MIC (CO-ADD); type: cell-based; conditions: Candida tropicalis, ATCC750, read-out: MIC
Method: as §1

MRSA 252 [4] = experiment: MIC, broth micro-dilution; type: cell-based, Staphylococcus aureus
Method: (§2) E. coli DH5α, P. aeruginosa PA01 and the 53 S. aureus strains were recovered from frozen (−80° C.) glycerol (15% v/v) stocks on Lysogeny agar (LA)—Gram negative and trypticase soy agar (TSA)—plates at 37° C. for 24 hours. Single colonies were placed in either 3 mL Lysogeny broth (LB)—Gram negative or trypticase soy broth (TSB)—Gram positive and incubated at 37° C., 250 rpm for 18 hours.
(§3) Antibiotic MIC's were determined by a broth micro-dilution method according to Clinical Standard Laboratory Institute (CSLI) Guidelines (2017). Briefly, 96-well microplates, each containing 195 μL of the 1:2 dilution antibiotic in TSB, were inoculated with 5 μL of overnight cultured bacteria, diluted to give a starting bacterial concentration of 5×10^5 CFU/mL. The optical density of each well inoculated was recorded every 12 minutes over an 18 hour period at 37° C. The data from this was plotted in OriginPro8 (OriginLab) and sigmoidal curves fitted using the dose response function. Fitted values for each curve were used to calculate the MIC.

MSSA 476 [5] = experiment: MIC, broth micro-dilution; type: cell-based, Staphylococcus aureus
Method: as §2, §3

red blood cells = experiment: Hemolysis assay (CO-ADD); type: cell-based; conditions: 32 μg/mL highest concentration tested
From the text: A problem often encountered by emerging drugs is hemolysis, also known as drug-induced immune hemolytic anemia.

[6] = tested on: Staphylococcus aureus 15981; experiment: Disc diffusion (Kirby-Bauer), zone of inhibition; type: cell-based; conditions: 500 μg/mL, '/' = no zone
Method: as §2
(§4) The antibiotic activity was determined using a Kirby-Bauer method according to Clinical Standard Laboratory Institute (CSLI) Guidelines (2017). Briefly, 180 μL of a 1 in 200 dilution (in LB or TSB) of overnight cultures of selected Gram negative and Gram positive bacteria were applied to an agar plate containing the solid growth medium, Mueller-Hinton agar (MHA). Sterile discs, inoculated with 50 μL of antibiotic, were first added to the agar plate before the plates were incubated for 24 hours at 37° C. Following incubation, the zone of inhibition (if it existed) was recorded.

[7] = tested on: Pseudomonas aeruginosa PA01; experiment: Disc diffusion (Kirby-Bauer), zone of inhibition; type: cell-based; conditions: 500 μg/mL, '/' = no zone
Method: as §2, §4

Escherichia coli DH5α = experiment: Disc diffusion (Kirby-Bauer), zone of inhibition; type: cell-based
Method: as §2, §4

MRSA 252 [8] = experiment: Disc diffusion (Kirby-Bauer), zone of inhibition; type: cell-based, Staphylococcus aureus; conditions: 500 μg/mL, '/' = no zone; for zone of inhibition at 500 µg/mL: Staphylococcus aureus
Method: as §2, §4

MSSA 476 [9] = experiment: Disc diffusion (Kirby-Bauer), zone of inhibition; type: cell-based, Staphylococcus aureus; conditions: 500 μg/mL, '/' = no zone; for zone of inhibition at 500 µg/mL: Staphylococcus aureus
Method: as §2, §4

[10] = tested on: MRSA 252, MSSA 476, S. aureus 15981, P. aeruginosa PA01 and E. coli DH5α; experiment: Disc diffusion primary screening, five strains (statements in words); type: cell-based; conditions: 500 μg/mL
Method: As such, the minimum inhibition concentration (MICs) of biologically active compounds were further assessed using the broth dilution method against the S. aureus strains; MRSA 252 and MSSA 476 (Table 1). The results of both assays enabled key structural elements and functional groups required for the compounds to retain their antibiotic activity to be identified.
as §4

HEK293 cells = experiment: Cytotoxicity assay, resazurin (CO-ADD); conditions: HEK 293
Method: The cytotoxicity studies were performed by CO-ADD (The Community for Open Antimicrobial Drug Discovery), funded by the Wellcome trust (UK) and the University of Queensland, Australia.^(28) In this study, the compounds were screened against a human embryonic kidney cell line, HEK293, at a set concentration of 32 μg/mL.
DMEM supplemented with 10% FBS was used as growth media and the cells were incubated together with the compounds for 20 hours at 37° C. in 5% CO2.
Cytotoxicity (or cell viability) was measured by fluorescence, excitation: 560/10 nm, emission: 590/10 nm (F560/590), after addition of 5 μL of 25 μg/mL Resazurin (2.3 μg/mL final concentration) and after incubation for further 3 h at 37° C. in 5% CO2. The fluorescence intensity was measured using a Tecan M1000 Pro monochromator plate reader, using automatic gain calculation CC50 (concentration at 50% cytotoxicity) were calculated by curve fitting the inhibition values vs. log(concentration) using sigmoidal dose-response function, with variable fitting values for bottom, top and slope. The curve fitting was implemented using Pipeline Pilot's dose-response component.

[11] = tested on: methicillin resistant Staphylococcus aureus strains; type: cell-based; conditions: clinically relevant methicillin resistant Staphylococcus aureus strains
insect phenol-oxidases = experiment: Inhibition of insect phenol-oxidases; type: biochemical
Galleria mellonella = experiment: Systemic toxicity, Galleria mellonella survival; conditions: n = 10, injection of 500 μg/mL
Method: Galleria mellonella wax worms purchased from www.livefoods.co.uk were inoculated with 10 μL of a series of dilutions of the antibiotics synthesised in-house. The antibiotic concentrations chosen for this study were the following: 1000 μg/mL, 500 μg/mL, 250 μg/mL, 125 μg/mL and 31.25 μg/mL. Each dilution was injected into 10 individual wax worms through their last pro-leg. The injected wax worms were stored at 25° C. for 5 days. The cytotoxicity was determined as the percentage survival rate of Galleria mellonella Wax worms after 5 days inoculation.

Manduca sexta = experiment: Systemic toxicity, Manduca sexta survival and mass growth; type: in vivo; conditions: 1% solution, by 48 hours
From the text: The use of Galleria for evaluating systemic toxicity study provided a straightforward method for screening any immediate toxicity issues associated with the lead compounds. One problem encountered with this model is the complications of obtaining quantitative results since only live/dead outcomes can be recorded. As an alternative and quantitative approach for systemic toxicity, it was decided to use a new model using Manduca sexta as the subject, replacing the much smaller and difficult to handle, Galleria mellonella. The Manduca sexta assay allows for the mass change of the larvae to be measured over hours/days, thus giving information not only on survival but also on the organisms' fitness^(26) Promisingly, the 72 hour assay performed at concentrations of 1 mg/mL on the selected lead compounds gave identical results to those obtained using the Galleria infection model, indicating no apparent toxicity issues for the compounds. […] As a […] control, the Manduca were injected with a 1% solution of NaN3. […]
[…] The mass of each hornworm was measured before and up to 72 hours after injection at set 24 hour intervals. The systemic toxicity was determined as the percentage survival and mass growth relative to the positive control at the pre-determined set intervals.

[12] = Stability in the presence of glutathione (NMR); type: physicochemical; conditions: up to 24 hours, DMSO-D6
From the text: It is well known that compounds bearing an isocyanide group are usually highly reactive, capable of reacting with electrophiles, nucleophiles and radicals.^(30) As a result, it was important to identify any stability issues which might be encountered by the lead compounds, both in storage and in the presence of glutathione and cysteine. […] Another common feature of the lead compounds is the vinyl fragment. It was hypothesized that the presence of glutathione and cysteine found in eukaryotic cells could potentially interact with the electrophilic alkene group in the compounds, thus shutting down their antibiotic activity. To probe this potentially detrimental in vivo process, compound 39 was subjected to glutathione for up to 24 hours whilst compound 41 was added to cysteine for the same length of time.

With `CC1COc2c(N3CCN(C)CC3)c(F)cc3c(=O)c(C(=O)O)cn1c23` (centres unmarked) [ofloxacin, reference compound] the “increase in MIC after serial passage” value (MRSA 252 [1]) was “greater than 10 fold”.

`[C-]#[N+]/C=C/c1ccccc1/C=C/c1ccccc1` [Compound 38, 1-((E)-2-Isocyanovinyl)-2-((E)-styryl)benzene] showed an MIC [2] of 4 µg/mL, an MIC (C. tropicalis ATCC 450) of 2 µg/mL and an MIC (C. albicans ATCC 90028) of 2 to 4 µg/mL. The MIC [3] was 2 µg/mL, the MIC (C. glabrata ATCC 90030) was greater than 32 µg/mL and the MIC (C. tropicalis ATCC 750) was 8 to 16 µg/mL. The MIC (MRSA 252 [4]; Staphylococcus aureus, read-out: MIC) was 5 µg/mL (≈ 21.6 µM), the MIC (MSSA 476 [5]; Staphylococcus aureus, MSSA, read-out: MIC) was 3 µg/mL (≈ 13 µM) and the “Hemolytic activity (HC10)” value (red blood cells) was greater than 32 µg/mL. It also gave a zone of inhibition at 500 µg/mL ([6]; Staphylococcus aureus 15981, read-out: Zone of inhibition) of 28 mm, a zone of inhibition at 500 µg/mL [7] of 26 mm and a zone of inhibition at 500 µg/mL (Escherichia coli DH5α; Escherichia coli DH5α, 500 μg/mL, '/' = no zone, read-out: Zone of inhibition) of 28 mm. For the same compound, the zone of inhibition at 500 µg/mL (MRSA 252 [8]; read-out: Zone of inhibition) was 30 mm, the zone of inhibition at 500 µg/mL (MSSA 476 [9]; read-out: Zone of inhibition) was 30 mm and the “antibiotic activity in disc diffusion assays (in words)” value [10] was “retained antibiotic activity”. The “Concentration toxic to HEK 293 cells” value (HEK293 cells) was greater than 32000 ng/mL.

With Byelyankacin the “antibiotic activity (in words)” value [11] was “good antibiotic activity” and the “inhibition of insect phenol-oxidases (in words)” value (insect phenol-oxidases) was “inhibitor of insect phenol-oxidases”.

With phenol vinyl isocyanide [(E)-4] the “antibiotic activity (in words)” value [11] was “good antibiotic activity”.

In the case of `[C-]#[N+]C=Cc1c[nH]c2ccccc12` [Compound 26, 3-(2-Isocyanovinyl)-1H-indole], the “% survival after 5 days” value (Galleria mellonella) is reported as 100%, the MIC (MRSA 252 [4]) is reported as 20 µg/mL (≈ 119 µM) and the MIC (MSSA 476 [5]) is reported as 222 µg/mL (≈ 1320 µM). For the same compound, the Zone of inhibition ([6]; Staphylococcus aureus 15981) was 22 mm, the zone of inhibition at 500 µg/mL (Escherichia coli DH5α; Escherichia coli) was 20 mm and the Zone of inhibition (MRSA 252 [8]) was 20 mm. It also gave a Zone of inhibition (MSSA 476 [9]) of 20 mm.

In the case of `[N-]=[N+]=[N-].[Na+]` [Negative Control (NaN3), NaN3, reference compound], the “% survival after 5 days” value (Galleria mellonella) is reported as 0% and the “survival of Manduca sexta” value (Manduca sexta) is reported as “had all died”.

With `[C-]#[N+]/C=C/c1ccccc1/C=C/c1ccncc1` [Compound 39] the “structure after exposure to glutathione (NMR)” value [12] was “no change in the structure”, the MIC (MRSA 252 [4]) was 12 µg/mL (≈ 51.7 µM) and the MIC (MSSA 476 [5]) was 15 µg/mL (≈ 64.6 µM). It also gave a Zone of inhibition ([6]; Staphylococcus aureus 15981) of 26 mm, a Zone of inhibition [7] of 20 mm and a Zone of inhibition (Escherichia coli DH5α; Escherichia coli DH5α, 500 μg/mL, '/' = no zone) of 12 mm. The Zone of inhibition (MRSA 252 [8]) was 28 mm, the Zone of inhibition (MSSA 476 [9]) was 32 mm and the “antibiotic activity in disc diffusion assays (in words)” value [10] was “retaining its activity against the Gram negative P. aeruginosa and E. coli”.

For `[C-]#[N+]C=Cc1c[nH]c2ccccc12` [Compound 25, 3-(2-Isocyanovinyl)-1H-indole], the “% survival after 5 days” value (Galleria mellonella) was 90%, the MIC (MRSA 252 [4]) was 61 µg/mL (≈ 363 µM) and the MIC (MSSA 476 [5]; Staphylococcus aureus, MSSA) was 166 µg/mL (≈ 987 µM). It also gave a zone of inhibition at 500 µg/mL ([6]; Staphylococcus aureus, 15981, Staphylococcus aureus 15981) of 16 mm, a zone of inhibition at 500 µg/mL (MRSA 252 [8]; MRSA) of 18 mm and a zone of inhibition at 500 µg/mL (MSSA 476 [9]; MSSA) of 16 mm.
